Among the data in ChEMBL document CHEMBL3769353, “Novel indole-based melatonin analogues: Evaluation of antioxidant activity and protective effect against amyloid β-induced damage” (Bioorg Med Chem, 2016) are IC50, inhibition and Activity values, retold here.

As a reminder, the IC50 is the midpoint of a concentration-inhibition curve. The inhibition is the relative decrease from the control value, in per cent.

The structures appear in SMILES notation. Active and inactive are the calls of the source. The rule behind the calls is not given here.

One data set deals with PC-12. The experiment in a line: Neuroprotective activity against amyloid beta (25 to 35 amino acid residues) induced damage in rat PC12 cells assessed as cell viability preincubated for 3 hrs followed by addition of amyloid beta (25 to 35 amino acid residues) for 24 hrs by MTT assay. Format: functional, cell-based. In general terms: Tetrazolium dyes change colour on reduction, which living cells bring about.

Data set [1] in a line: Antioxidant activity in rat PC12 cells assessed as inhibition of amyloid beta (25 to 35 amino acid residues) induced ROS generation at 50 uM preincubated overnight followed by addition of amyloid beta (25 to 35 amino acid residues) measured after 120 mins by DCFH-DA-based fluorescence assay. The format is functional. To be noted: PC-12.
Data set [2] has as its system Erythrocyte. The experiment in a line: Antioxidant activity in human erythrocytes assessed as ROS induced DCFH-DA oxidation at 100 uM by fluorescence analysis in presence of 10 uM of H2O2. Format: functional, cell-based.
Data set [3] is described as follows: Cytotoxicity against rat PC12 cells at 100 uM. Format: cell-based. To be noted: pc-12, 100 µM.
The test system of data set [4] is Erythrocyte. The experiment in a line: Antioxidant activity in human erythrocytes assessed as ROS induced DCFH-DA oxidation at 10 uM by fluorescence analysis in presence of 10 uM of H2O2. Format: functional, cell-based.
A short description of data set [5]: Cytotoxicity against CHOK1 cells assessed as LDH leakage at 10 uM by spectrophotometric analysis. The format is cell-based, Cricetulus griseus. To be noted: chinese hamster, cho-k1, 10 µM.

Consider `Fc1ccc(-c2[nH]c3ccccc3c2/C=N/Nc2ccccc2Br)cc1`, for which the IC50 with PC-12 was 37 µM. Also, the inhibition at 50 µM in data set [1] turned out to be 95.5%. Besides, the result in the data set on Erythrocyte [2] and in the data set with Erythrocyte [4] was Active. The Activity entry in data set [3] and in data set [5] was “Non-toxic” in each case.
In the case of `Fc1ccc(-c2[nH]c3ccccc3c2/C=N/Nc2ccc(Cl)cc2Cl)cc1`, in the data set on PC-12, the concentration for half-maximal inhibition (IC50) is 51.5 µM. The inhibition at 50 µM in data set [1] is 83.8%. Besides, the result with Erythrocyte [2] and with Erythrocyte [4] was Active. Also, the Activity result in data set [3] and in data set [5] was “Non-toxic” throughout.
Turning to `Fc1ccc(-c2[nH]c3ccccc3c2/C=N/Nc2cccc(Cl)c2)cc1`, the IC50 in the data set on PC-12 is 44 µM. Further, the inhibition at 50 µM in data set [1] came to 54.6%. Further, the result in the data set on Erythrocyte [2] and in the data set with Erythrocyte [4] was Active. The Activity result in data set [3] and in data set [5] was “Non-toxic” in each case.
Turning to `COc1ccc2[nH]cc(CCNC(C)=O)c2c1` [MELATONIN], the half-inhibitory concentration (IC50) with PC-12 was greater than 100 µM. In addition, the inhibition at 50 µM in data set [1] came out at 49.9%. Further, the Activity entry in data set [3] is “Non-toxic”.
As to `Fc1ccc(-c2[nH]c3ccccc3c2/C=N/Nc2cccc(F)c2)cc1`, the concentration for half-maximal inhibition (IC50) with PC-12 was 54.4 µM. Besides, the inhibition at 50 µM in data set [1] was determined as 77.8%. Also, the result in the data set on Erythrocyte [2] and in the data set with Erythrocyte [4] was Active. Further, the Activity result in data set [3] and in data set [5] was “Non-toxic” each time.
For `Fc1ccc(-c2[nH]c3ccccc3c2/C=N/Nc2cc(Cl)ccc2Cl)cc1`, in the data set on PC-12, the half-inhibitory concentration (IC50) is 39 µM. For the same compound, in data set [1], the inhibition at 50 µM amounted to 59.2%. The outcome in the data set with Erythrocyte [2] and in the data set on Erythrocyte [4] was Active. Further, the Activity result in data set [3] and in data set [5] was “Non-toxic” throughout.
For the compound `Fc1ccc(N/N=C/c2c(-c3ccc(F)cc3)[nH]c3ccccc23)cc1`, the IC50 with PC-12 was greater than 100 µM. The inhibition at 50 µM in data set [1] worked out at 74%. The Activity result in data set [3] and in data set [5] was “Non-toxic” throughout. For the same compound, the outcome with Erythrocyte [4] was inactive.
With `COc1ccc(C(=O)N/N=C/c2c(-c3ccc(F)cc3)[nH]c3ccccc23)cc1`, the concentration for half-maximal inhibition (IC50) in the data set with PC-12 is greater than 100 µM. For the same compound, in data set [1], the inhibition at 50 µM is 19.2%. Also, the Activity result in data set [3] and in data set [5] was “Non-toxic” in each case. For the same compound, the outcome with Erythrocyte [4] was inactive.
As to `Fc1ccc(-c2[nH]c3ccccc3c2/C=N/Nc2ccccc2Cl)cc1`, the concentration for half-maximal inhibition (IC50) in the data set with PC-12 was 38.3 µM. In addition, in data set [1], the inhibition at 50 µM stood at 44.1%. In addition, the outcome in the data set on Erythrocyte [2] and with Erythrocyte [4] was Active. In addition, the Activity result in data set [3] and in data set [5] was “Non-toxic” throughout.
On to `Fc1ccc(-c2[nH]c3ccccc3c2/C=N/Nc2ccc(Cl)c(Cl)c2)cc1`, for which the IC50 in the data set with PC-12 was found to be 65.7 µM. Besides, the inhibition at 50 µM in data set [1] worked out at 71.2%. The outcome in the data set on Erythrocyte [2] and with Erythrocyte [4] was Active. Also, the Activity entry in data set [3] and in data set [5] was “Non-toxic” each time.
For the compound `Fc1ccc(-c2[nH]c3ccccc3c2/C=N/Nc2cc(F)cc(F)c2)cc1`, the IC50 in the data set on PC-12 was 34.3 µM. Further, the inhibition at 50 µM in data set [1] worked out at 86.4%. The outcome with Erythrocyte [2] and with Erythrocyte [4] was Active. Further, the Activity entry in data set [3] and in data set [5] was “Non-toxic” in each case.
Regarding `Fc1ccc(-c2[nH]c3ccccc3c2/C=N/Nc2ccccc2F)cc1`, the IC50 with PC-12 came out at 64.1 µM. Further, in data set [1], the inhibition at 50 µM turned out to be 88.1%. Besides, the result in the data set on Erythrocyte [2] and in the data set with Erythrocyte [4] was Active. In addition, the Activity result in data set [3] and in data set [5] was “Non-toxic” in each case.
Consider `Fc1ccc(-c2[nH]c3ccccc3c2/C=N/Nc2cccc(Br)c2)cc1`, for which the result in the data set with Erythrocyte [2] and with Erythrocyte [4] was Active. Also, the Activity result in data set [3] and in data set [5] was “Non-toxic” in each case.
Consider `Fc1ccc(-c2[nH]c3ccccc3c2/C=N/Nc2ccc(F)cc2F)cc1`, for which, in the data set on PC-12, the 50% inhibitory concentration (IC50) worked out at 50.4 µM. Besides, the inhibition at 50 µM in data set [1] was determined as 74.9%. Further, the outcome in the data set on Erythrocyte [2] and in the data set on Erythrocyte [4] was Active. Also, the Activity result in data set [3] and in data set [5] was “Non-toxic” throughout.
On to `Fc1ccc(-c2[nH]c3ccccc3c2/C=N/Nc2ccc(Cl)cc2)cc1`, for which the IC50 with PC-12 amounted to 73.9 µM. Besides, the inhibition at 50 µM in data set [1] was 49.7%. Also, the outcome in the data set with Erythrocyte [2] and in the data set on Erythrocyte [4] was Active. The Activity entry in data set [3] and in data set [5] was “Non-toxic” throughout.
